Measured values published in publication PMC10255489, “Targeting Anti-Inflammatory Pathways to Treat Diabetes-Induced Neuropathy by 6-Hydroxyflavanone” (Nutrients, 2023).

Legend:
5-lipoxygenase (5-LOX) = biological target: T1, 5-lipoxygenase (5-LOX) (Homo sapiens, UniProt P09917); test: UV ([…] nm) linoleic acid to HPOD assay, human recombinant 5-LOX; format: biochemical
T1 construct: gene ALOX5
T1 sequence (P09917 1-674): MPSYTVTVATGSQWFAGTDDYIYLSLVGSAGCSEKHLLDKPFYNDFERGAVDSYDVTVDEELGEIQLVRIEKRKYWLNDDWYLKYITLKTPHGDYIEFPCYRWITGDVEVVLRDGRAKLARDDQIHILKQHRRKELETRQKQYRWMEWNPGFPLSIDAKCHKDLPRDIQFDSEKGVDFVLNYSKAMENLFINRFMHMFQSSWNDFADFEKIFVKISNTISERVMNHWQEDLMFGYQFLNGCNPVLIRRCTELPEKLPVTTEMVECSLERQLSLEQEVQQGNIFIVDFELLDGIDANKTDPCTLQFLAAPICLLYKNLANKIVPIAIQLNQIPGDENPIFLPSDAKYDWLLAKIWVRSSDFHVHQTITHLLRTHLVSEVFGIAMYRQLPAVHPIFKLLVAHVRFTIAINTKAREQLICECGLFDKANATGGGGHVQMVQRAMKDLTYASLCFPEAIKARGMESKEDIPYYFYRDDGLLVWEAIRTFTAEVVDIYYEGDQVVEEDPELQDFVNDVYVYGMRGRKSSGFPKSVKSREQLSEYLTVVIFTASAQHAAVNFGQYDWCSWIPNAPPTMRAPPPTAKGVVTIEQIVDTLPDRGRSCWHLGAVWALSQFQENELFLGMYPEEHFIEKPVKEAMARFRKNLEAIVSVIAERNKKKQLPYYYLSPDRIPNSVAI

cyclooxygenase-2 (COX-2) = biological target: T2, cyclooxygenase-2 (COX-2) (Homo sapiens, UniProt P35354); test: colorimetric COX inhibitor screening assay (Cayman […]), human recombinant COX-2
T2 construct: gene PTGS2
T2 sequence (P35354 18-604): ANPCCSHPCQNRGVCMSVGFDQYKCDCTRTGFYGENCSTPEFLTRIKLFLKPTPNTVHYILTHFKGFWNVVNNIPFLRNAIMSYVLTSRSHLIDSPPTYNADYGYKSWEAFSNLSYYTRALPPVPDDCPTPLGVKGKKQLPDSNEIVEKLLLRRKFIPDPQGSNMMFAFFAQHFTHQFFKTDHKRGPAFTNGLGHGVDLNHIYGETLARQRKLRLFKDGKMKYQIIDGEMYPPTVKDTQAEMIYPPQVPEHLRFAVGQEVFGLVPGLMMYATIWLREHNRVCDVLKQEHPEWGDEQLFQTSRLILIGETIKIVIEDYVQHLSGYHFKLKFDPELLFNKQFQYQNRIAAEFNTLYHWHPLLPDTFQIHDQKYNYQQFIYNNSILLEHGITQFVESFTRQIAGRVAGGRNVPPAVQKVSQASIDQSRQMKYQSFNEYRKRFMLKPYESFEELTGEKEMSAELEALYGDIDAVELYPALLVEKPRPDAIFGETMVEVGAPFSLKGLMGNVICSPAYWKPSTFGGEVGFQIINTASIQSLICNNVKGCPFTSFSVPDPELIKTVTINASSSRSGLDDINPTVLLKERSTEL

O=C1CC(c2ccccc2)Oc2ccc(O)cc21 (centres unmarked) [6-HF, 6-Hydroxyflavanone]
IC50 (5-lipoxygenase (5-LOX)): 36 µM
IC50 (cyclooxygenase-2 (COX-2)): 21.9 µM
